In ChEMBL document CHEMBL1155927, “Synthesis and evaluation of 5'-modified 2'-deoxyadenosine analogues as anti-hepatitis C virus agents” (Bioorg Med Chem Lett, 2008) one finds EC50 and CC50 data, which are given here for 6 compounds.

For one data set, the system named is Hepatitis C virus. As to the kind of experiment: Antiviral activity against HCV assessed as inhibition of viral RNA replication in Huh7 cells. Format: functional, organism-based, Hepacivirus hominis. To be noted: Huh-7.
A short description of data set [1]: Cytotoxicity in human Huh7 cells by XTT assay. Format: cell-based, Huh-7. (Tetrazolium assays rely on reduction of a dye to a coloured formazan, in cell work by metabolically active cells.)

Each structure is given as a SMILES string.

Turning to `COC(=O)CC[C@H]1O[C@@H](n2cnc3c(N)ncnc32)C[C@@H]1O`, the EC50 (as a rule, the concentration at which the effect is half-maximal) with Hepatitis C virus was over 200 µM.
`O=C(CC[C@H]1O[C@@H](n2cnc3c(Cl)ncnc32)C[C@@H]1O)c1ccccc1`: the EC50 in the data set on Hepatitis C virus turned out to be 15.1 µM. Also, in data set [1], the CC50 (in general, the concentration that lowers cell viability or growth by half) stood at 76.3 µM.
`COC(=O)CC[C@H]1O[C@@H](n2cnc3c(Cl)ncnc32)C[C@@H]1O`: the EC50 with Hepatitis C virus came out at 32.9 µM. The same compound showed a CC50 in data set [1] of over 200 µM.
On to `Nc1ncnc2c1ncn2[C@H]1C[C@H](O)[C@@H](CCC(=O)c2ccccc2)O1`, for which the EC50 in the data set with Hepatitis C virus was over 200 µM.
As to `CON(C)C(=O)CC[C@H]1O[C@@H](n2cnc3c(Cl)ncnc32)C[C@@H]1O`, in the data set on Hepatitis C virus, the EC50 was determined as 40.4 µM. In data set [1], this compound returned a CC50 of over 200 µM.
As to `CON(C)C(=O)CC[C@H]1O[C@@H](n2cnc3c(N)ncnc32)C[C@@H]1O`, the EC50 in the data set on Hepatitis C virus was over 200 µM.
